Reference: patent US20230203059A1, “MACROCYCLIC JAK INHIBITOR AND USES THEREOF” (Biopolar Hongye (Guangdong) Pharmaceutical Co. Ltd., priority 2020, published 2023)

Assays:
Format in all cases: biochemical
TYK2 = TYK2 (Homo sapiens, UniProt P29597); test: JAK kinase activity, homogeneous time-resolved fluorescence (TYK2 reaction system); details: ATP 2 μM, TYK2 protein 0.2 ng/μL; read-out: TYK 2 activity
Description: (§1) The activity measurement method of JAK kinase was to use homogeneous time-resolved fluorescence technique. The reaction was performed in 384 shallow well plates with a total reaction volume of 10 μL. The mixture of kinase protein, compound, ATP and substrate was carried out in a reaction buffer of 50 mM Hepes (pH7.0), NaN3 0.02%, BSA 0.01%, 0.1 mM Orthocanadate, 5 mM MgCl2, and 1 mM DTT. After reacting for 1 hour, an antibody capable of recognizing substrate phosphorylation, dye XL-615 and detection buffer (Cisbio) containing EDTA were added to the system. The reaction signal of kinase was detected by PE company's porous plate detector. The parameter settings were excitation light at 320 nm, emission light at 615 nm and 665 nm. The activity of JAK is indirectly reflected by the signal ratio of 665 nm and 615 nm. In the reaction, the background well without enzyme and the total enzyme activity well without compound were set.
(§2) The IC50 value of the compound inhibiting protein was obtained by the formula: Y=100/(1+10^((Log IC50−X)*HillSlope)). In JAK1 reaction system, the concentration of ATP was 2 μM, and the concentration of JAK1 protein was 0.2 ng/μL.
In TYK2 reaction system, the concentration of ATP was 2 μM, and the concentration of TYK2 protein was 0.2 ng/μL.

JAK3 = target: T1, JAK3 (Homo sapiens, UniProt P52333); test: JAK kinase activity, homogeneous time-resolved fluorescence (JAK3 reaction system); details: ATP 2 μM, JAK3 protein 0.04 ng/μL; read-out: JAK 3 activity
T1 sequence (P52333 1-1124): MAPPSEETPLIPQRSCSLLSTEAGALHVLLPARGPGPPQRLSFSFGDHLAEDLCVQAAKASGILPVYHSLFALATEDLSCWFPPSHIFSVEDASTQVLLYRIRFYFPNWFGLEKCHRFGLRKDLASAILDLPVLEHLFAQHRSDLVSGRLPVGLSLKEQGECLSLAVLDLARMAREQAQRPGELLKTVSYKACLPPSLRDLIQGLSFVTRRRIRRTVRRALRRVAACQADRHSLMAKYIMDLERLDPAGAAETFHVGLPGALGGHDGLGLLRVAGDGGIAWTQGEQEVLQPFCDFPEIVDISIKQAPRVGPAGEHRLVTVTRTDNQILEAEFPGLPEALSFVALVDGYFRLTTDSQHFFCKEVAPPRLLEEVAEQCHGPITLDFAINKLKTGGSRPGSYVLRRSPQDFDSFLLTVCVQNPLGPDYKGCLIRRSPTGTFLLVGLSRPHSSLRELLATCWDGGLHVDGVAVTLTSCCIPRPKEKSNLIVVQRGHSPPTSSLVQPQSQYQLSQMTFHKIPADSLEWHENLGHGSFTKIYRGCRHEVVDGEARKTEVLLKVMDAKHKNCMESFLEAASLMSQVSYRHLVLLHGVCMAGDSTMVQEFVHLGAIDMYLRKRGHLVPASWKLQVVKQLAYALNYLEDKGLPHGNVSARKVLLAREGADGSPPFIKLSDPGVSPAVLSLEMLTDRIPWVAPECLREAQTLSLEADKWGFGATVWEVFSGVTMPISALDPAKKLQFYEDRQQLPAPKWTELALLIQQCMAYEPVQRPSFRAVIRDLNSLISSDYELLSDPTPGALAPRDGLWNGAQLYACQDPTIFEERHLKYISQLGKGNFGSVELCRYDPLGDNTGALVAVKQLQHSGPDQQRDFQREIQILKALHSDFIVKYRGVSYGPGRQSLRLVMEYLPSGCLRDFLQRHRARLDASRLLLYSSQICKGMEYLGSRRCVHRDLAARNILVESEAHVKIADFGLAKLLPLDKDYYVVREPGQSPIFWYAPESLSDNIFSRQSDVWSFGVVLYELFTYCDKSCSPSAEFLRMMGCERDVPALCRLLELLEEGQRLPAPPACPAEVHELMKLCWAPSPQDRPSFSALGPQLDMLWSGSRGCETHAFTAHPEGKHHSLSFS
Description: as §1, with “The reaction was performed in 384 shallow well plates with a total reaction volume of 10 μL.” left out, “After reacting for 1 hour, an antibody capable of recognizing substrate phosphorylation, dye XL-615 and detection buffer (Cisbio) containing EDTA were added to the system.” left out, “set. […]” for “set.”
In JAK3 reaction system, the concentration of ATP was 2 μM, and the concentration of JAK3 protein was 0.04 ng/μL.

JAK2 = JAK2 (Homo sapiens, UniProt O60674); test: JAK kinase activity, homogeneous time-resolved fluorescence (JAK2 reaction system); details: ATP 2 μM, JAK2 protein 0.01 ng/μL
Sequence of JAK2 (O60674 whole entry): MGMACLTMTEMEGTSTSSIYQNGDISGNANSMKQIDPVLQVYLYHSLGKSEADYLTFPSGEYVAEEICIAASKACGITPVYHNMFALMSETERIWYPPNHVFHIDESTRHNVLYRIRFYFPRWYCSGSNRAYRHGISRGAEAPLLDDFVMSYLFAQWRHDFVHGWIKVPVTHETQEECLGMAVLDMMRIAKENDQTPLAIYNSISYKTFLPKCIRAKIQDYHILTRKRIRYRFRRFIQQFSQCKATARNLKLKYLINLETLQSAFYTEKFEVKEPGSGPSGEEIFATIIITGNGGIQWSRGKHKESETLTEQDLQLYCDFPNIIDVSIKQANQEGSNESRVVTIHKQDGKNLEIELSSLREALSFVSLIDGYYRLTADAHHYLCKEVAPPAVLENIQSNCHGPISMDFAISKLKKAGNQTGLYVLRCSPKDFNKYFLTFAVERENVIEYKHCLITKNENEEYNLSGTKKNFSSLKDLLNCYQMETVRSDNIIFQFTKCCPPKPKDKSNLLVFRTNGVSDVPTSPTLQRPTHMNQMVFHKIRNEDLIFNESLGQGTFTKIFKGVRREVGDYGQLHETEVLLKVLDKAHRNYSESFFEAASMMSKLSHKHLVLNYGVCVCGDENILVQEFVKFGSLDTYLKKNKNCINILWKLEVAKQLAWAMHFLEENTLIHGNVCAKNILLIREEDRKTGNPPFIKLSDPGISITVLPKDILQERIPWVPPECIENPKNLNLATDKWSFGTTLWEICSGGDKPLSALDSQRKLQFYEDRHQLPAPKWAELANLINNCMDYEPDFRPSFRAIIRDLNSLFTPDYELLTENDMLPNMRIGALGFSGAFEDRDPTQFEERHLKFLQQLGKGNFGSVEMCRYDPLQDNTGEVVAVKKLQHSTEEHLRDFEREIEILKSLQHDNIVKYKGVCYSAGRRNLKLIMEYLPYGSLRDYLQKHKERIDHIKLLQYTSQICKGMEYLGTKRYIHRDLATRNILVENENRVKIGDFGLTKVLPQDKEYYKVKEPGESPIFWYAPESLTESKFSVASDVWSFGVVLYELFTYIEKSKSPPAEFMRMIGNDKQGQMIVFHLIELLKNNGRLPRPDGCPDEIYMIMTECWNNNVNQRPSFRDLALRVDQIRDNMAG
Description: as §1, §2
In JAK2 reaction system, the concentration of ATP was 2 μM, and the concentration of JAK2 protein was 0.01 ng/μL.

JAK1 = JAK1 (Homo sapiens, UniProt P23458); test: JAK kinase activity, homogeneous time-resolved fluorescence (JAK1 reaction system); details: ATP 2 μM, JAK1 protein 0.2 ng/μL; read-out: JAK 1 activity
Sequence of JAK1 (P23458 whole entry): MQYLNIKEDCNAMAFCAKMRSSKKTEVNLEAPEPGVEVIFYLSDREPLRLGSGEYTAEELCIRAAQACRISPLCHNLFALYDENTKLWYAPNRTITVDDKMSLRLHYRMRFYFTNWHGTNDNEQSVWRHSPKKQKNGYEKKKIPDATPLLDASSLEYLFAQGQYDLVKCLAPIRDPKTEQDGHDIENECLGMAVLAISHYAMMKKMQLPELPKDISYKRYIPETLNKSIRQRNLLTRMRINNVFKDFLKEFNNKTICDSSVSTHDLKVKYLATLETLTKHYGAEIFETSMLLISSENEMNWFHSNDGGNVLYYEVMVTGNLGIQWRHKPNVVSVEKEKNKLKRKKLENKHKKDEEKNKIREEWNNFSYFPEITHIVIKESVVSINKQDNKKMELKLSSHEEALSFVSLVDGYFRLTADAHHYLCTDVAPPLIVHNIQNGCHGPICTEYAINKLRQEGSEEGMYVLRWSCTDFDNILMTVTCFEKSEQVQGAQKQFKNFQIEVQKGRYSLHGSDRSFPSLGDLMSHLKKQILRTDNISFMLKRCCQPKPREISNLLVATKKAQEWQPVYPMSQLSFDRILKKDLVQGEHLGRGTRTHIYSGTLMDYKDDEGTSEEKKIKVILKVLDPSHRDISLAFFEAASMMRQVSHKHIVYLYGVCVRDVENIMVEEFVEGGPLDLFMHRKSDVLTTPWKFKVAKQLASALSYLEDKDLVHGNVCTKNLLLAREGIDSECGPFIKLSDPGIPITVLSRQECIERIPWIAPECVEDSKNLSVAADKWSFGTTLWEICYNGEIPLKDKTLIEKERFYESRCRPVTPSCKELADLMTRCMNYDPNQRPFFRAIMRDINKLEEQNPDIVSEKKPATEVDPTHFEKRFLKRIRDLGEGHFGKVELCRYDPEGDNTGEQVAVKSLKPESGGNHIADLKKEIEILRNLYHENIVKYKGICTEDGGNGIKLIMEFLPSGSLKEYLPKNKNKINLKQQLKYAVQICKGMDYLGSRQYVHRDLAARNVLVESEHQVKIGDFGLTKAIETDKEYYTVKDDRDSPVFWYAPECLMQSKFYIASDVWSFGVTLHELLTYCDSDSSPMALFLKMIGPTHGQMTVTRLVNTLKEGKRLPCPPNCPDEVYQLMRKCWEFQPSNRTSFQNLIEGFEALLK
Description: as §1, §2

Sequence of TYK2 (P29597 whole entry): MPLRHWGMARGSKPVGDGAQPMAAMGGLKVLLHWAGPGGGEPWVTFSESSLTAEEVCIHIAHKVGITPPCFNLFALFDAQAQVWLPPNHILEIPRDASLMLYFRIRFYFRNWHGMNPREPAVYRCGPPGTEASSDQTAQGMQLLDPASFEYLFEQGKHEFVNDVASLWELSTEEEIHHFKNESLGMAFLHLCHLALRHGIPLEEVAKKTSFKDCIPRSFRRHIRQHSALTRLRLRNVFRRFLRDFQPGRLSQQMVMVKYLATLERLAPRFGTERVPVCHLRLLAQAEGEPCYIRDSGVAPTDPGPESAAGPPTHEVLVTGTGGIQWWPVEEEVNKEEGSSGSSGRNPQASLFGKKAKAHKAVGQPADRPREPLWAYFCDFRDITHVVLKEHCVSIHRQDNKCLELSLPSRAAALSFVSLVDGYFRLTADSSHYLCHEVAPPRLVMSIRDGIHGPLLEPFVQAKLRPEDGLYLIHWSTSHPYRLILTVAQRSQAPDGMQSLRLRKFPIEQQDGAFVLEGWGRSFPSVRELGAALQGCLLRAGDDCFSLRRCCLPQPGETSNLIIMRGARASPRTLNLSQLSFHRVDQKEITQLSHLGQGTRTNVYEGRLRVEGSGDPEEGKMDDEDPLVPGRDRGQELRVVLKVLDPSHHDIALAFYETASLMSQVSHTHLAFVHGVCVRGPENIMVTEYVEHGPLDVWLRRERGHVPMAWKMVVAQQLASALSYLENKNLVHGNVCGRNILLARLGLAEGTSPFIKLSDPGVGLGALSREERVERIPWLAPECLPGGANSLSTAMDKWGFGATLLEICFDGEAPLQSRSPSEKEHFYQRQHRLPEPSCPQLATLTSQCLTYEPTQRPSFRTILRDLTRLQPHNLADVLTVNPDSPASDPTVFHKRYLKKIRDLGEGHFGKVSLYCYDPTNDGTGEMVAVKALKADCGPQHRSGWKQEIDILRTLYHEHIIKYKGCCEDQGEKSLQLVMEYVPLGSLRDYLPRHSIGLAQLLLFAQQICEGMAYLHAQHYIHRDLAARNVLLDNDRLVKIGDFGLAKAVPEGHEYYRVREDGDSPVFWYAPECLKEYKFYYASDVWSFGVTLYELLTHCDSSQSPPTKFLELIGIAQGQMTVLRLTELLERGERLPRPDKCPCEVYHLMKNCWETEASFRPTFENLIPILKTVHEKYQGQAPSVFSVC

Row | IC50 (TYK2) [µM] | IC50 (JAK3) [nM] | IC50 (JAK2) [nM] | IC50 (JAK1) [nM] | Structure (SMILES)
1 | 0.011 to 0.1 | < 10 | < 10 | 11 to 100 | O=C1NCCCCOCc2cc(ccc2N2CCOCC2)Nc2ncc(Cl)c(n2)-c2ccc1cc2 [Example 9, 2^5-chloro-4^4-morpholin-6-oxa-3,11-diaza-2(4,2)-pyrimidina-1(1,4),4(1,3)-dibenzenacyclododecaphan-12-one]
2 | > 10 | 1000 to 10000 | > 10000 | > 10000 | Cc1ccc2cc1COCCCCNC(=O)c1ccc(c(C)c1)-c1nc(ncc1C)N2 [Example 37, 1^2,2^5,4^4-trimethyl-6-oxa-3,11-diaza-2(4,2)-pyrimidina-1(1,4),4(1,3)-di-benzenacyclododecaphan-12-one]
3 | 1 to 10 | 11 to 100 | 101 to 1000 | 1000 to 10000 | Nc1cc2ccc1-c1ccnc(n1)Nc1ccc(OCc3cccc4c3COC4)c(c1)COCCCCNC2=O [Example 160, 1^2-amino-4^4-((1,3-dihydroisobenzo-furan-4-yl)methoxy)-6-oxa-3,11-diaza-2(4,2)-pyrimidina-1(1,4),4(1,3)-dibenzenacyclododecaphan-12-one]
4 | > 10 | 1000 to 10000 | 1000 to 10000 | 1000 to 10000 | O=C1NCCCCOCc2cc(ccc2OCC2COC2)Nc2nccc(n2)-c2ccc1cc2[N+](=O)[O-] [Example 163, 1^2-nitro-4^4-(oxetan-3-ylmethoxy)-6-oxa-3,11-diaza-2(4,2)-pyrimidina-1(1,4),4(1,3)-dibenzenacyclo-dodecaphan-12-one]
5 | 1 to 10 | 11 to 100 | 101 to 1000 | 1000 to 10000 | COc1cc(F)ccc1COc1ccc2cc1COCCCCNC(=O)c1ccc(c(N)c1)-c1ccnc(n1)N2 [Example 173, 1^2-amino-4^4-((4-fluoro-2-methoxy-benzyl)oxy)-6-oxa-3,11-diaza-2(4,2)-pyrimidina-1(1,4),4(1,3)-di-benzenacyclododecaphan-12-one]
6 | > 10 | 101 to 1000 | > 10000 | > 10000 | Nc1cc2ccc1-c1ccnc(n1)Nc1ccc(F)c(c1)COc1ccc(cc1)NC2=O [Example 91, 1^2-amino-4^4-fluoro-6-oxa-3,8-diaza-2(4,2)-pyrimidina-1,7(1,4),4(1,3)-tri-benzenacyclononaphane-9-one]
7 | > 10 | 101 to 1000 | 101 to 1000 | 101 to 1000 | O=C1NCCCCOCc2cc(cc(N3CCOCC3)c2)Nc2nccc(n2)-c2ccc1cc2 [Example 3, 4^5-morpholin-6-oxa-3,11-diaza-2(4,2)-pyrimidina-1(1,4),4(1,3)-dibenze-nacyclododecaphan-12-one]
8 | > 10 | 101 to 1000 | 1000 to 10000 | > 10000 | O=C1NCCCCOCc2cc(ccc2OCC2CCC2)Nc2nccc(n2)-c2ccc1cc2[N+](=O)[O-] [Example 99, 4^4-(cyclobutylmethoxy)-1^2-nitro-6-oxa-3,11-diaza-2(4,2)-pyrimidina-1(1,4),4(1,3)-dibenzenacyclodode-caphan-12-one]
9 | > 10 | 11 to 100 | 101 to 1000 | 1000 to 10000 | CC1CCNC(=O)c2ccc(c(N)c2)-c2ccnc(n2)Nc2ccc(OCC3CCCC3)c(c2)COC1 (centres unmarked) [Example 131, 1^2-amino-4^4-(cyclopentylmethoxy)-8-methyl-6-oxa-3,11-diaza-2(4,2)-pyrimidina-1(1,4),4(1,3)-dibenzena-cyclododecaphan-12-one]
10 | 1 to 10 | 101 to 1000 | 101 to 1000 | 1000 to 10000 | N#Cc1cnc2nc1-c1ccc(cc1)C(=O)NCCCCOCc1cc(ccc1N1CCOCC1)N2 [Example 11, 2^5-cyano-4^4-morpholin-6-oxa-3,11-diaza-2(4,2)-pyrimidina-1(1,4),4(1,3)-dibenzenacyclododecaphan-12-one]
11 | 1 to 10 | 11 to 100 | 1000 to 10000 | 1000 to 10000 | Nc1cc2ccc1-c1ccnc(n1)Nc1ccc(OCC3CCc4ccccc43)c(c1)COCCCCNC2=O (centres unmarked) [Example 134, 1^2-amino-4^4-((2,3-dihydro-1H-inden-1-yl)methoxy)-6-oxa-3,11-diaza-2(4,2)-pyrimidina-1(1,4),4(1,3)-dibenzenacyclododecaphan-12-one]
12 | > 10 | 1000 to 10000 | > 10000 | > 10000 | CC1CCNC(=O)c2ccc(c([N+](=O)[O-])c2)-c2ccnc(n2)Nc2ccc(OCC3CC3)c(c2)COC1 (centres unmarked) [Example 144, 4^4-(cyclopropylmethoxy)-8-methyl-1^2-nitro-6-oxa-3,11-diaza-2(4,2)-pyrimidina-1(1,4),4(1,3)-dibenzena-cyclododecaphan-12-one]
13 | 0.011 to 0.1 | < 10 | < 10 | 11 to 100 | O=C1NCCCCOCc2cc(ccc2N2CCOCC2)Nc2nccc(n2)-c2ccc1c(F)c2 [Example 10, 1^3-fluoro-4^4-morpholin-6-oxa-3,11-diaza-2(4,2)-pyrimidina-1(1,4),4(1,3)-dibenzenacyclododecaphan-12-one]
14 | 1 to 10 | 11 to 100 | 101 to 1000 | 101 to 1000 | Cc1cc2ccc1NC(=O)c1ccc(c(N)c1)-c1ccnc(n1)Nc1ccc(OC3CC3)c(c1)CO2 [Example 207, 1^2-amino-4^4-cyclopropoxy-7^3-meth-yl-6-oxa-3,8-diaza-2(4,2)-pyrimidina-1,7(1,4),4(1,3)-tribenzenacyclo-nonaphane-9-one]
15 | > 10 | 101 to 1000 | 101 to 1000 | 1000 to 10000 | O=C1NCCCCOCc2cccc(c2)Nc2ncc(Cl)c(n2)-c2ccc1cc2Cl [Example 18, 1^2,2^5-dichloro-6-oxa-3,11-diaza-2(4,2)-pyrimidina-1(1,4),4(1,3)-dibenz-enacyclododecaphan-12-one]
16 | 1 to 10 | < 10 | 101 to 1000 | 101 to 1000 | CC(C)Oc1ccc2cc1COCCCCNC(=O)c1ccc(c(N)c1)-c1ccnc(n1)N2 [Example 67, 1^2-amino-4^4-isopropoxy-6-oxa-3,11-diaza-2(4,2)-pyrimidina-1(1,4),4(1,3)-dibenzenacyclododecaphan-12-one]

Row | Structure (SMILES) | IC50 (TYK2) [µM] | IC50 (JAK3) [nM] | IC50 (JAK2) [nM] | IC50 (JAK1) [nM]
17 | CC(C)COc1ccc2cc1COCCCCNC(=O)c1ccc(c([N+](=O)[O-])c1)-c1ccnc(n1)N2 [Example 115, 4^4-isobutoxy-1^2-nitro-6-oxa-3,11-diaza-2(4,2)-pyrimidina-1(1,4),4(1,3)-dibenzenacyclododecaphan-12-one] | > 10 | 101 to 1000 | 1000 to 10000 | 1000 to 10000
